In patent publication US9951064B2, “Azaindazole compounds as inhibitors of T790M containing EGFR mutants” (Genentech, Inc., priority 2013, dated 2018) one finds Ki and EC50 data, which are given here for nine molecules.

The target of one assay is T1, EGFR T790M L858R (Homo sapiens, UniProt P00533, L858R/T790M).
T1 construct: purchased Life Technologies PV4879
The assay is described as follows: EGFR T790M L858R biochemical assay (Caliper mobility shift). Conditions: 5 μM ATP; apparent Ki (Morrison fit) converted by Cheng-Prusoff, Km of ATP 1.3 μM. As for the experimental part: The exemplified compounds described herein were tested according to the assay below. The enzyme data reported in Tables 4-5 is generally a representative of multiple experiments.
Reactions proceed for 30 minutes at room temperature (22° C.) and are terminated with 80 mM 2,2′,2″,2′″-(ethane-1,2-diyldinitrilo)tetraacetic acid (EDTA). Product is detected using the Caliper mobility shift detection method where product and substrate are electrophoretically separated and measured.

The target of assay [1] is T2, phosphor-EGFR in H1975(L585R/T790M) mutant EGFR expressing cells (Homo sapiens, UniProt P00533, L858R/T790M).
T2 construct: host or cells: NCI-H1975
In words: H1975 pEGFR MSD cellular assay. Type of assay: cell-based. The following applies: NCI-H1975 cells, serum starved, 1 hour compound incubation, pEGFR Tyr1068 MSD; read-out: HI975 pEGFR EC50. How it is done: H1975 pEGFR MSD Cellular Assays
These assays are intended for determining cellular. […] (Meso Scale Discovery Catalog# N31CB-1).
NCI-H1975 (ATCC Catalog# CRL-5908) cells are maintained in medium containing RPMI 1640, 10% FBS, 4 mM L-Glutamine, 1% Penicillin-Streptomycin, and 4.5 g/L Glucose. All cell culture reagents were purchased from Invitrogen/Gibco. Cells are cultured at 37° C. at 5% CO2 and split as recommended by ATCC.
Cell Plating and Serum Starvation:
H1975 cells are harvested and plated into sterile cell culture treated 384 well plates (Greiner catalog #781091) at a density of 30,000 cells/well in 50 ul culture medium and placed in a 37° C. at 5% CO2 incubator for six hours. After six hours, culture medium is aspirated and replaced with serum-free culture medium. Cells are then incubated with the serum-free medium overnight at 37° C. and 5% CO2.
The following day, test compounds are serially diluted in dimethyl sulfoxide (DMSO) and added to cells in serum free medium (final DMSO concentration 0.5%). Assay plates are then incubated for 1 hour at 37° C. and 5% CO2. Following 1 hour of compound incubation cells are then lysed and processed as per the MSD pEGFR assay kit protocol. Cell lysates are added to assay plates pre-coated with antibodies against phosphorylated EGFR. Phosphorylated EGFR in samples are allowed to bind to the capture antibodies overnight at 4° C. The detection antibody (anti-total EGFR, labeled with an electrochemiluminescent SULFO-TAG) is added to the bound lysate and incubated for 1 hour at room temperature. The MSD Read Buffer is added such that when a voltage is applied to the plate electrodes, the labels bound to the electrode surface emit light. The MSD Sector Instrument measures the intensity of the light, and quantitatively measures the amount of phosphorylated-EGFR in the sample. Percent inhibition of EGFR phosphorylation by varying concentrations of test compounds is calculated relative to untreated controls. EC50 values are calculated using the 4 parameter logistic nonlinear regression dose-response model.

For assay [2], the system named is H1975 (EGFR T790M/L858R) cell proliferation. The assay is described as follows: H1975 proliferation assay (Cell Titer-Glo). The assay is classed as cell-based. The following applies: Homo sapiens, NCI-H1975, 72 h, NCI-H1975 cells, 72 hour incubation, read-out: H1975 antiproliferative EC50. As for the experimental part: H1975 Proliferation Assays
All cell culture reagents were purchased from Invitrogen/Gibco. Cells are cultured at 37° C. at 5% CO2 and split as recommended by ATCC.

T2 sequence (P00533 25-1210 T790M/L858R): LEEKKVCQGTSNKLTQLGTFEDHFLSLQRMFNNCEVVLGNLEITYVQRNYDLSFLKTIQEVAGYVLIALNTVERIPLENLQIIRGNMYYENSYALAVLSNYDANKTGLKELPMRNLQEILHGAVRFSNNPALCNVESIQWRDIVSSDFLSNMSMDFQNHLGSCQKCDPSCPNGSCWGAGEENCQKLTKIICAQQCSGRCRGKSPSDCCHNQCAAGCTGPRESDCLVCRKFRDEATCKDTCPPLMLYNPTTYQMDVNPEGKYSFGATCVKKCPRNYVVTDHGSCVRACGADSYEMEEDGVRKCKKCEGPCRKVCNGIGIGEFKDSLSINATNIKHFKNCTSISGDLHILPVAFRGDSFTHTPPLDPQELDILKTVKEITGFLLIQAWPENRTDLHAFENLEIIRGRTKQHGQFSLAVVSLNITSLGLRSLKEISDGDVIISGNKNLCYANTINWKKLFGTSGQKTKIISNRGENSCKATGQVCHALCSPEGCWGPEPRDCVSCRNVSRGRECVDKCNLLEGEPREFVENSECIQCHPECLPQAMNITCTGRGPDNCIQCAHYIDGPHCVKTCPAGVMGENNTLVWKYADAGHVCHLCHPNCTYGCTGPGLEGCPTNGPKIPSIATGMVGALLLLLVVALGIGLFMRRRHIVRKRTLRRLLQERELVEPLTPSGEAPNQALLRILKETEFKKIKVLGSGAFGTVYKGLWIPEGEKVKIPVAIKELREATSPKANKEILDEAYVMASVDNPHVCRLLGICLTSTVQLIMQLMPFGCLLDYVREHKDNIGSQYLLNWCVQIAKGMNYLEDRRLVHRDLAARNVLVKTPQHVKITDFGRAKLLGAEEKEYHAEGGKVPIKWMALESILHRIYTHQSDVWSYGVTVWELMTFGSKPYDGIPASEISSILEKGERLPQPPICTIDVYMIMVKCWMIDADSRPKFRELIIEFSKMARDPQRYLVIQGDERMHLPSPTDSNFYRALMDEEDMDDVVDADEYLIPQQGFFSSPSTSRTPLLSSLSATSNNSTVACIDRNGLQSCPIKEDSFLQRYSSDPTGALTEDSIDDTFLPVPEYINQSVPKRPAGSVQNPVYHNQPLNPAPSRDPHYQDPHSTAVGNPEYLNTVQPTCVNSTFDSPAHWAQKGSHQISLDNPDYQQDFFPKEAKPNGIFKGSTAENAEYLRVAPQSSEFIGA
T1 sequence (P00533 25-1210 T790M/L858R): as above

`CCC(C)n1nc(N2CCNC2=O)c2cnc(Nc3ccnc(N4CC[C@@H](OC)[C@@H](F)C4)n3)cc21` (mixture of isomers) [Example 26, (±)-1-(1-(sec-Butyl)-6-((2-(cis-3-fluoro-4-methoxypiperidin-1-yl)pyrimidin-4-yl)amino)-1H-pyrazolo[4,3-c]pyridin-3-yl)imidazolidin-2-one]: the Ki on EGFR T790M L858R came to 0.6 nM. In addition, the values for the concentration for a half-maximal effect (EC50) in assay [1] and in assay [2] were 14.4 nM and 108 nM, respectively.
In the case of `CC(C)n1nc(N2CCS(=O)(=O)CC2)c2cnc(Nc3ccnc(-c4cnn(S(=O)(=O)C5CC5)c4)n3)cc21` [Example 1, 4-(6-((2-(1-(Cyclopropylsulfonyl)-1H-pyrazol-4-yl)pyrimidin-4-yl)amino)-1-isopropyl-1H-pyrazolo[4,3-c]pyridin-3-yl)thiomorpholine 1,1-dioxide], the Ki on EGFR T790M L858R was determined as 609 nM. Also, the concentration for a half-maximal effect (EC50) in assay [1] came out at 606 nM; in assay [2], 2020 nM.
Turning to `CC(C)n1nc(N2CC3(COC3)C2)c2cnc(Nc3ccnc(-c4cnn(CC5CC5)c4)n3)cc21` [Example 4, N-(2-(1-(Cyclopropylmethyl)-1H-pyrazol-4-yl)pyrimidin-4-yl)-1-isopropyl-3-(2-oxa-6-azaspiro[3.3]heptan-6-yl)-1H-pyrazolo[4,3-c]pyridin-6-amine], on EGFR T790M L858R, the Ki was 3 nM. Besides, the values for the EC50 in assay [1] and in assay [2] were 219 nM and 732 nM, respectively.
Take `CC(C)n1nc(N2CC3(COC3)C2)c2cnc(Nc3ccnc(-c4cnn(S(=O)(=O)C5CC5)c4)n3)cc21` [Example 5, N-(2-(1-(Cyclopropylsulfonyl)-1H-pyrazol-4-yl)pyrimidin-4-yl)-1-isopropyl-3-(2-oxa-6-azaspiro[3.3]heptan-6-yl)-1H-pyrazolo[4,3-c]pyridin-6-amine]: the Ki at EGFR T790M L858R was determined as 1 nM. The EC50 in assay [1] stood at 29.6 nM; in assay [2], 421 nM.
In the case of `CC(C)n1nc(N2CCOCC2)c2cnc(Nc3ccnc(-c4cnn(CC5CC5)c4)n3)cc21` [Example 9, N-(2-(1-(Cyclopropylmethyl)-1H-pyrazol-4-yl)pyrimidin-4-yl)-1-isopropyl-3-morpholino-1H-pyrazolo[4,3-c]pyridin-6-amine], the Ki at EGFR T790M L858R worked out at 5.2 nM. Moreover, the half-maximal effective concentration (EC50) in assay [1] turned out to be 382 nM; in assay [2], 1840 nM.
In the same order, the values of `CCS(=O)(=O)n1cc(-c2nccc(Nc3cc4c(cn3)c(NC3COC3)nn4C(C)C)n2)cn1` [Example 16, N^6-(2-(1-(Ethylsulfonyl)-1H-pyrazol-4-yl)pyrimidin-4-yl)-1-isopropyl-N^3-(oxetan-3-yl)-1H-pyrazolo[4,3-c]pyridine-3,6-diamine] are 1.1 nM, 79.7 nM and 921 nM.
In the same order, the values of `CC(C)n1nc(C2CCOC2)c2cnc(Nc3ccnc(-c4cnn(S(=O)(=O)C5CC5)c4)n3)cc21` (stereo not drawn) [Example 19, N-(2-(1-(Cyclopropylsulfonyl)-1H-pyrazol-4-yl)pyrimidin-4-yl)-1-isopropyl-3-(tetrahydrofuran-3-yl)-1H-pyrazolo[4,3-c] pyridin-6-amine] are 4.9 nM, 723 nM and 1460 nM.
Consider `CC(C)n1nc(N2CC[C@@H](C#N)C2)c2cnc(Nc3ccnc(-c4cnn(S(=O)(=O)C5CC5)c4)n3)cc21` [Example 28, (R)-1-(6-((2-(1-(Cyclopropylsulfonyl)-1H-pyrazol-4-yl)pyrimidin-4-yl)amino)-1-isopropyl-1H-pyrazolo[4,3-c]pyridin-3-yl)pyrrolidine-3-carbonitrile], for which the Ki at EGFR T790M L858R stood at 0.8 nM. Moreover, the results for the concentration giving a half-maximal response (EC50) in assay [1] and in assay [2] were 15.7 nM and 121 nM, respectively.
In the case of `CC(C)n1nc(OC2CCOC2)c2cnc(Nc3ccnc(-c4cnn(S(=O)(=O)C5CC5)c4)n3)cc21` (stereo not drawn) [Example 29, N-(2-(1-(Cyclopropylsulfonyl)-1H-pyrazol-4-yl)pyrimidin-4-yl)-1-isopropyl-3-(tetrahydrofuran-3-yloxy)-1H-pyrazolo[4,3-c]pyridin-6-amine], on EGFR T790M L858R, the Ki was 1.9 nM. Also, the EC50 was determined as 154 nM in assay [1] and 798 nM in assay [2].
